This experiment has as its system COVID-19. The following applies: human, in vivo.

On to `O=C([O-])O.[Na+]` [bicarbonate of soda, sodium bicarbonate], for which the “second swab test (Covid-19)” value was “non-conclusive” and the “third swab test (Covid-19)” value is given as “negative”. In addition, the “symptoms after the first 2/3rds of a dose” value (po) is recorded as “no symptoms”.
